Experimental data taken from patent publication US7115750B1, “Melanin concentrating hormone antagonist” (Takeda Pharmaceutical Company Limited, priority 1999, dated 2006).

SMILES	melting point
O=C(Nc1ccc2c(c1)CCC(CN1CCCC1)C2)c1ccc(-c2ccccc2)cc1 (centres unmarked) [Example 96, N-[6-(1-Pyrrolidinylmethyl)-5,6,7,8-tetrahydro-2-naphthalenyl][1,1′-biphenyl]-4-carboxamide]	144 to 146 °C
O=C(Nc1ccc2c(c1)CCC(CN1CCCC1)C2)c1ccc(-c2ccc(F)cc2)cc1 (centres unmarked) [Example 97, 4′-Fluoro-N-[6-(1-pyrrolidinylmethyl)-5,6,7,8-tetrahydro-2-naphthalenyl][1,1′-biphenyl]-4-carboxamide]	185 to 189 °C
O=C(Nc1ccc2c(c1)CCC(CN1CCCC1)C2)c1ccc(-c2ccc(Cl)cc2)cc1 (centres unmarked) [Example 98, 4′-Chloro-N-[6-(1-pyrrolidinylmethyl)-5,6,7,8-tetrahydro-2-naphthalenyl][1,1′-biphenyl]-4-carboxamide]	206 to 209 °C
O=C(Nc1ccc2c(c1)CCC(CN1CCCC1)=C2)N1CCN(c2ccc(F)cc2)CC1 [Example 100, 4-(4-Fluorophenyl)-N-[6-(1-pyrrolidinylmethyl)-7,8-dihydro-2-naphthalenyl]-1-piperazinecarboxamide]	179 to 181 °C
CN(C)CC1=Cc2ccc(C(=O)Nc3ccc(Br)cc3)cc2CC1 [Example 101, N-(4-Bromophenyl)-6-[(dimethylamino)methyl]-7,8-dihydro-2-naphthalenecarboxamide]	175 to 179 °C
O=C(Nc1ccc2c(c1)CCC(CN1CCCC1)=C2)c1ccc(-c2ccc(F)cc2F)cc1 [Example 103, 2′,4′-Difluoro-N-[6-(1-pyrrolidinylmethyl)-7,8-dihydro-2-naphthalenyl][1,1′-biphenyl]-4-carboxamide]	165 to 167 °C
CN(C)CC1COc2ccc(NC(=O)c3ccc(-c4ccccc4)cc3)cc2O1 (centres unmarked) [Example 104, N-[3-[(Dimethylamino)methyl]-2,3-dihydro-1,4-benzodioxin-6-yl][1,1′-biphenyl]-4-carboxamide]	124 to 126 °C
CN(C)CC1COc2cc(NC(=O)c3ccc(-c4ccc(Cl)cc4)cc3)ccc2O1 (centres unmarked) [Example 106, 4′-Chloro-N-[2-[(dimethylamino)methyl]-2,3-dihydro-1,4-benzodioxin-6-yl][1,1′-biphenyl]-4-carboxamide]	215 to 217 °C
CN(C)CC1COc2cc(NC(=O)c3ccc(-c4ccc(F)cc4F)cc3)ccc2O1 (centres unmarked) [Example 107, 2′,4′-Difluoro-N-[2-[(dimethylamino)methyl]-2,3-dihydro-1,4-benzodioxin-6-yl][1,1′-biphenyl]-4-carboxamide]	209 to 210 °C
O=C(Nc1ccc2c(c1)OCC(CN1CCCC1)O2)c1ccc(-c2ccc(Cl)cc2)nc1 (centres unmarked) [Example 108, 6=(4-Chlorophenyl)-N-[2-(1-pyrrolidinylmethyl)-2,3-dihydro-1,4-benzodioxin-6-yl]nicotinamide]	218 to 220 °C
CC1=C(CN(C)C)CCc2cc(NC(=O)c3ccc(-c4ccc(Cl)cc4)cc3)ccc21 [Example 111, 4′-Chloro-N-[6-[(dimethylamino)methyl]-5-methyl-7,8-dihydro-2-naphthalenyl][1,1′-biphenyl]-4-carboxamide]	199 to 204 °C
CCC1=C(CN(C)C)CCc2cc(NC(=O)c3ccc(-c4ccc(Cl)cc4)cc3)ccc21 [Example 112, 4′-Chloro-N-[6-[(dimethylamino)methyl]-S-ethyl-7,8-dihydro-2-naphthalenyl][1,1′-biphenyl]-4-carboxamide]	201 to 204 °C
CC(C)CC1=C(CN(C)C)CCc2cc(NC(=O)c3ccc(-c4ccc(Cl)cc4)cc3)ccc21 [Example 113, 4′-Chloro-N-(6-[(dimethylamino)methyl)-5-isobutyl-7,8-dihydro-2-naphthalenyl][1,1′-biphenyl]-4-carboxamide]	159 to 162 °C
COc1ccc(-c2ccc(C(=O)Nc3ccc4c(c3)CCC(CN3CCCC3)=C4C)cn2)cc1 [Example 116, 6-(4-Methoxyphenyl)-N-[5-methyl-6-(1-pyrrolidinylmethyl)-7,8-dihydro-2-naphthalenyl]nicotinamide]	165 to 167 °C
N#CC1=C(CN2CCCC2)CCc2cc(NC(=O)c3ccc(-c4ccc(Cl)cc4)cc3)ccc21 [Example 117, 4′-Chloro-N-[5-cyano-6-(1-pyrrolidinylmethyl)-7,8-dihydro-2-naphthalenyl][1,1′-biphenyl]-4-carboxamide]	191 to 192 °C
N#CC1=C(CN2CCCC2)CCc2cc(NC(=O)c3ccc(-c4ccccc4)cc3)ccc21 [Example 118, N-[5-Cyano-6-(1-pyrrolidinylmethyl)-7,8-dihydro-2-naphthalenyl][1,1′-biphenyl]-4-carboxamide]	168 to 170 °C
CN(C)CC1CCc2cc(NC(=O)c3cccc(-c4ccccc4)c3)ccc2C1 (centres unmarked) [Example 120, N-[6-[(Dimethylamino)methyl]-5,6,7,8-tetrahydro-2-naphthalenyl][1,1′-biphenyl]-3-carboxamide]	145 to 148 °C
CN(C)CC1CCc2cc(NC(=O)c3cc4ccccc4[nH]3)ccc2C1 (centres unmarked) [Example 122]	190 to 192 °C
CN(C)CC1=Cc2ccc(NC(=O)CNC(=O)c3ccc(Cl)cc3)cc2CC1 [Example 126, 4-Chloro-N-[2-[[6-[(dimethylamino)methyl]-7,8-dihydro-2-naphthalenyl]amino]-2-oxoethyl]benzamide]	168 to 171 °C

SMILES	melting point
CN(C)CC1=Cc2ncc(NC(=O)c3ccc(-c4ccccc4)cc3)cc2CC1 [Example 133, N-[7-[(Dimethylamino)methyl]-5,6-dihydro-3-quinolinyl][1,1′-biphenyl]-4-carboxamide]	202 to 203 °C
CN(C)CC1=Cc2ncc(NC(=O)c3ccc(-c4ccc(Cl)cc4)cc3)cc2CC1 [Example 134, 4′-Chloro-N-[7-[(dimethylamino)methyl]-5,6-dihydro-3-quinolinyl][1,1′-biphenyl]-4-carboxamide]	220 to 222 °C
COc1ccc(-c2ccc(C(=O)Nc3ccc4c(c3)OCC(CN3CCCC3)=C4)cn2)cc1 [Example 141, 6-(4-Methoxyphenyl)-N-[3-(1-pyrrolidinylmethyl)-2H-chromen-7-yl]nicotinamide]	243 to 245 °C
COc1ccc(-c2ccc(C(=O)Nc3ccc4c(c3)CCC(CN3CCCC3)=C4)cc2)cc1 [Example 148, 4′-Methoxy-N-[6-(1-pyrrolidinylmethyl)-7,8-dihydro-2-naphthalenyl][1,1′-biphenyl]-4-carboxamide]	187 to 188 °C
O=C(Nc1ccc2c(c1)CCC(CN1CCCC1)=C2)c1ccc(-c2ccc(F)cc2)nc1 [Example 149, 6-(4-Fluorophenyl)-N-[6-[(1-pyrrolidinyl)methyl]-7,8-dihydro-2-naphthalenyl]nicotinamide]	225 to 227 °C
CN(C)CC1=Cc2ccc(NC(=O)c3ccc(-c4ccc(F)cc4)nc3)cc2CC1 [Example 151]	216 to 219 °C
CN(C)CC1=Cc2ccc(NC(=O)c3ccc(-c4ccc(F)cc4F)nc3)cc2CC1 [Example 152, 6-(2,4-Difluorophenyl)-N-[6-[(dimethylamino)methyl]-7,8-dihydro-2-naphthalenyl]nicotinamide]	162 to 163 °C
O=C(Nc1ccc2c(c1)CCC(CN1CCCC1)=C2)c1ccc(-c2ccccc2)nc1 [Example 153, 6-Phenyl-N-[6-(1-pyrrolidinylmethyl)-7,8-dihydro-2-naphthalenyl]nicotinamide]	186 to 187 °C
Cc1ccc(C2CCN(C(=O)Nc3ccc4c(c3)CCC(CN3CCCC3)=C4)CC2)cc1 [Example 155, 4-(4-Methylphenyl)-N-[6-(1-pyrrolidinylmethyl)-7,8-dihydro-2-naphthalenyl]-1-piperidinecarboxamide]	197 to 198 °C
O=C(Nc1ccc2c(c1)CCC(CN1CCCC1)=C2)N1CC=C(c2ccc(F)cc2)CC1 [Example 158]	206 to 207 °C
O=C(Nc1ccc2c(c1)CCC(CN1CCCC1)=C2)N1CC=C(c2ccc(Cl)cc2)CC1 [Example 159]	217 to 218 °C
O=C(Nc1ccc2c(c1)CCC(CN1CCCC1)=C2)c1ccc(-c2ccc(Cl)cc2)nc1 [Example 162, 6-(4-Chlorophenyl)-N-[6-(1-pyrrolidinylmethyl)-7,8-dihydro-2-naphthalenyl]nicotinamide]	252 to 253 °C
CN(C)CC1=Cc2ccc(NC(=O)c3ccc(-c4ccc(Cl)cc4)nc3)cc2CC1 [Example 164, 6-(4-Chlorophenyl)-N-[6-[(dimethylamino)methyl]-7,8-dihydro-2-naphthalenyl]nicotinamide]	248 to 249 °C
O=C(Nc1ccc2c(c1)CCC(CN1CCCC1)=C2)N1CCC(c2ccc(Cl)cc2)CC1 [Example 165, 4-(4-Chlorophenyl)-N-[6-(1-pyrrolidinylmethyl)-7,8-dihydro-2-naphthalenyl]-1-piperidinecarboxamide]	194 to 195 °C
Cc1ccc(C2CCN(C(=O)Nc3ccc4c(c3)CCC(CN(C)C)=C4)CC2)cc1 [Example 167, N-[6-[(Dimethylamino)methyl]-7,8-dihydro-2-naphthalenyl]-4-(4-methylphenyl)-1-piperidinecarboxamide]	200 to 202 °C
CN(C)CCNC(=O)Cc1ccc(NC(=O)CCCc2nc(-c3cc4ccccc4o3)no2)cc1 [Example 182, 4-[3-(1-Benzofuran-2-yl)-1,2,4-oxadiazol-5-yl]-N-[4-[2-[[2-(dimethylamino)ethyl]amino]-2-oxoethyl]phenyl]butanamide]	161 to 163 °C
CN(C)CCNC(=O)Cc1ccc(NC(=O)c2cc3ccccc3s2)cc1 [Example 185, N-[4-[2-[[2-(Dimethylamino)ethyl]amino]-2-oxoethyl]phenyl]-1-benzothiophen-2-carboxamide]	186 to 187 °C (dec.)
CN(C)CCNC(=O)Cc1ccc(NC(=O)Cc2ccccc2Cc2ccccc2)cc1 [Example 186, 2-(2-Benzylphenyl)-N-[4-[2-[[2-(dimethylamino)ethyl]amino]-2-oxoethyl]phenyl]acetamide]	115 to 117 °C
COc1ccc(CC(=O)Nc2ccc(CC(=O)NCCN(C)C)cc2)cc1OC [Example 187, 2-(3,4-dimethoxyphenyl)-N-[4-[2-[[2-(dimethylamino)ethyl]amino]-2-oxoethyl]phenyl]acetamide]	123 to 124 °C
